Experimental data reported in PubChem BioAssay (NCI).
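Results reflect a 48-hour exposure of cells in 96-well plates to compound at five concentrations. GI50 marks 50% less growth. TGI: total growth inhibition.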

How the values were obtained:
Assay in all cases: DTP human tumour cell line panel, 48 h
A498 renal = test system: A498 renal
EKVX NSCLC = test system: EKVX NSCLC
HCT-116 colon = test system: HCT-116 colon
HOP-92 NSCLC = test system: HOP-92 NSCLC
KM12 colon = test system: KM12 colon
OVCAR-5 ovarian = test system: OVCAR-5 ovarian
T-47D breast = test system: T-47D breast
PC-3 prostate = test system: PC-3 prostate

SMILES | TGI (A498 renal) [µM] | TGI (EKVX NSCLC) [µM] | TGI (HCT-116 colon) [µM] | TGI (HOP-92 NSCLC) [µM] | TGI (KM12 colon) [µM] | TGI (OVCAR-5 ovarian) [µM] | TGI (T-47D breast) [µM] | TGI (PC-3 prostate) [µM] | GI50 (A498 renal) [µM] | GI50 (EKVX NSCLC) [µM] | GI50 (HCT-116 colon) [µM] | GI50 (HOP-92 NSCLC) [µM] | GI50 (KM12 colon) [µM] | GI50 (OVCAR-5 ovarian) [µM] | GI50 (PC-3 prostate) [µM] | GI50 (T-47D breast) [µM]
NS(=O)(=O)c1nnc(NC(=O)Nc2ccc(Cl)c(Cl)c2)s1 | 43.9 | 94.6 | 42.4 | 42.3 | 92 | 75 | 55.3 |  |  |  |  |  |  |  |  | 
Oc1ccc(-c2nc3ccc(Br)cc3s2)cc1 |  | 28.6 | 64.1 |  | 41.6 | 63.8 |  | 54.8 |  |  |  |  |  |  |  | 
COC(=O)c1c(C)nc2c1cc(O)c1[nH]c(C)c(C)nc12 | > 100 | > 100 | > 100 | > 100 | > 100 | > 100 | > 100 | > 100 |  |  |  |  |  |  |  | 
O=C(N/N=C/c1ccc(Cl)cc1)c1c(Cl)c(Cl)c(Cl)c(Cl)c1-c1nc2ccccc2[nH]1 | > 100 | > 100 | > 100 | > 100 | > 100 | > 100 | 47.5 | > 100 |  |  |  |  |  |  |  | 
O=C1CCCCC1CN1CCCCC1 (centres undefined) | > 100 | > 100 | > 100 | > 100 | > 100 | > 100 |  | > 100 |  |  |  |  |  |  |  | 
CCN(CC)C(=S)N/N=C/c1cc([N+](=O)[O-])ccc1O | 7.47 | 78.9 | 12 |  | > 100 | > 100 | 39.4 | 78 |  |  |  |  |  |  |  | 
CCCCCC1=CC(=O)C1(Cl)Cl | 43.3 | 49.6 | 28.4 | 63.3 | 27.9 | 29.5 | > 52.2 | 42.1 |  |  |  |  |  |  |  | 
Oc1ccccc1CNCc1nc2ccccc2[nH]1 | > 100 | > 100 | > 100 | > 100 | > 100 | > 100 | > 100 | > 100 |  |  |  |  |  |  |  | 
Cc1ccc(N(Cc2ccccc2)Cc2ccccc2)cc1 | > 100 | > 100 | > 100 |  | > 100 | > 100 | > 100 | > 100 |  |  |  |  |  |  |  | 
Oc1ccc(Cc2cc(Cc3ccc(O)cc3)cc(Cc3ccc(O)cc3)c2)cc1 | > 50 | > 50 | > 50 |  | > 50 | > 50 |  | > 50 |  |  |  |  |  |  |  | 
N[C@@H](CCC(=O)NCP(=O)(O)O)C(=O)O | > 100 | > 100 | > 100 |  | > 100 | > 100 | > 100 | > 100 |  |  |  |  |  |  |  | 
c1ccc2c(c1)Cn1c-2nc2ccccc21 | > 100 | > 100 | > 100 | > 100 | > 100 | > 100 | > 100 | > 100 |  |  |  |  |  |  |  | 
CC(=O)Nn1c(=S)[nH]c2ccccc21 | > 100 | > 100 | > 100 | > 100 | > 100 | > 100 | > 100 | > 100 |  |  |  |  |  |  |  | 
O=C(c1ccccn1)C1(N2CCCCC2)CCCCC1 | > 100 | > 100 | > 100 | 64.9 | > 100 | > 100 | > 100 | > 100 |  |  |  |  |  |  |  | 
CC1(C(=O)O)CCC2(C)CCC3(C)C(=CC(=O)C4C5(C)CCC(O)C(C)(C)C5CCC43C)C2C1 (centres undefined) |  | > 100 | 63 |  | 37.3 | 82.9 | 99.1 | > 100 |  |  |  |  |  |  |  | 
COP(=O)(OC)C1=c2c(C)noc2=C2C=COC2C1=O (centres undefined) | > 100 | > 100 | > 100 | > 100 | > 100 | > 100 |  | > 100 |  |  |  |  |  |  |  | 
COC(=O)C1CC(C=[N+](C)C)=C(SC)N1C(=O)OCc1ccccc1 (centres undefined) | > 100 | > 100 | > 100 | > 100 | > 100 | > 100 | > 100 | > 100 |  |  |  |  |  |  |  | 
N#CC(Cc1ccccc1)N(CCC1=CCCCC1)C(c1ccccc1)c1ccccc1 (centres undefined) | > 100 | > 100 | > 100 | > 100 | > 100 | > 100 | > 100 | > 100 |  |  |  |  |  |  |  | 
COc1ccc(CN2C(=O)/C(=C\c3cc(OC)c(OC)c(OC)c3)c3ccccc32)cc1 | 14.3 | 55.1 | 3.05 | 7.3 | 3.57 | 6.48 | 7.31 | > 100 | 2.79 | 2.99 | 1.61 | 1.96 | 1.89 | 2.71 | 3.14 | 2.06
CC(=O)Nc1nc(NC(C)=O)c2[nH]c(CO)nc2n1 | > 100 | > 100 | > 100 | > 100 | > 100 | > 100 | > 100 | > 100 |  |  |  |  |  |  |  | 
[N-]=[N+]=NC(c1ccccc1)(c1ccccc1)c1ccccc1 | 31.9 | 27.8 | 30.2 | 32.3 | 46.8 | 30.1 | 38.4 | 29.4 |  |  |  |  |  |  |  | 
O=C(Cc1ccc(O)c(O)c1)NCc1c[nH]c2ccccc12 | > 100 | > 100 | > 100 | > 100 | > 100 | > 100 | > 100 | > 100 |  |  |  |  |  |  |  | 
C(=C(c1ccc(OC2CCCCO2)cc1)c1ccc(OC2CCCCO2)cc1)c1ccccc1 (centres undefined) | 2.64 | 1.83 | 1.64 | 1.96 | 0.677 | 2.25 | 2.14 | 1.59 |  |  |  |  |  |  |  | 
Nc1nccc(-c2c[nH]c3cc(Br)ccc23)n1 |  | 9.15 | 40.2 | 63.8 | 80.9 | 49 | > 100 | > 100 |  |  |  |  |  |  |  | 
CC(=O)/C=C/C1=C(C)CCCC1(C)CC(C)C (centres undefined) | > 100 | > 100 | 77.8 | 37.7 | > 100 | > 100 | 55.5 | > 100 |  |  |  |  |  |  |  | 
